Data: publication PMC6222633, “Preclinical Pharmacokinetics of Scoparone, Geniposide and Rhein in an Herbal Medicine Using a Validated LC-MS/MS Method” (Molecules : A Journal of Synthetic Chemistry and Natural …, 2018)
Read-outs that look alike come from different tables or passages of the source.

Assays:
[1] = Pharmacokinetics of scoparone, geniposide and rhein in rat plasma after oral administration of the herbal formula Yin-Chen-Hao-Tang (UPLC-MS/MS); assay type: in vivo, Male Sprague Dawley rats
Protocol: All samples were subjected to chromatographic separation using the Shimadzu UPLC system with an Acquity UPLC BEH C18 column (1.7 µm, 100 mm × 2.1 mm) (Waters Corp., Milford, MA, USA). Samples were maintained in the autosampler at 4 °C with […] of each being injected into the column. Chromatographic separations were conducted at 35 °C with a flow rate of 0.2 mL/min. The mobile phase was 1 mM ammonium acetate with 0.1% formic acid and methanol. A gradient elution was used from 20% methanol (0–2 min) to 95% methanol (3–11 min) then decreased to 20% methanol at 12 min. The overall run time is 20 mins. MRM transitions were scoparone (m/z 207 → 151), geniposide (m/z 406 → 227), rhein (m/z 283 → 240) and carbamazepine (m/z 237 → 194) for quantitation. Data acquisition was controlled with LabSolutions v. 5.60 SP1 software (Shimadzu, Kyoto, Japan).
Sample preparations were made using the protein precipitation process. A forty-five-microliter aliquot of blank plasma sample was mixed with 5 µL of internal standard solution and 100 μL […] was added. The mixture was vortexed for 5 min and centrifuged at 16,000× g for 10 min at 4 °C. The supernatant layer was then collected and transferred through a 0.22 μm membrane filter (0.22 μm, Millex-GV, Millipore, USA) to 1.5 mL autosampler vials. Finally, 20 µL was used for injection into the UPLC-MS/MS system.
Male Sprague Dawley rats weighing 230 ± 30 g were used for the following pharmacokinetic (PK) study. The rats were housed under controlled environmental conditions with free access to food and drinking water up to 12 h prior to experiments. The experimental protocol was approved by the Institutional Animal Ethics Committee of National Yang-Ming University, Taipei, Taiwan (IACUC1070112). All rats divided into two experimental groups were intragastrically fed pharmaceutical herbal product formula Yin-Chen-Hao Tang suspended in normal saline at 1 g/kg or 3 g/kg corresponding to the clinical daily dose of 9.7 g and 29.2 g in a 60 kg adult. Blood samples were collected via a polyethylene tubing (PE-50) implanted priory in the jugular vein of each rat in a heparin-rinsed vial. An aliquot of 100–120 µL blood was collected at time intervals of 0, 5, 15, 30, 60, 90, 120, 180, 240, 300 and 360 min after oral administration of the herbal product. Each group contained a total of six rats to diminish individual variation. All blood samples were immediately centrifuged as mentioned above (16,000× g for 10 min at 4 °C) and stored at −20 °C until analysis.
The pharmacokinetic parameters were calculated using the pharmacokinetic software WinNonlin Standard Edition, version 1.1 (Scientific Consulting Inc., Apex, NC, USA). The area under the plasma concentration-time curve (AUC), terminal elimination half-life (t1/2) and oral clearance (CL) were estimated using non-compartmental analysis. The maximum plasma concentration (Cmax) and time to reach the maximum concentration (Tmax) was directly applied from the plasma concentration-time curve. Pharmacokinetic parameters of each individual data set were calculated using WinNonlin Standard Edition, version 1.1 (Pharsight Corp., Mountain View, CA, USA). Statistics and graphics were performed with SPSS version 18.0 (SPSS Inc., Chicago, IL, USA) and SigmaPlot 10.0 software (Systat Software Inc., San Jose, CA, USA). All values were expressed as the mean ± standard deviation (S.D.).

[2] = design: method as in PMID 21945452; details: oral administration of 50–200 mg of rhein, healthy Chinese subjects; cited from earlier work
[3] = rat plasma, YCHT 3 g/kg p.o., mean ± S.D., n = 6
[4] = rat plasma, YCHT 3 g/kg vs 1 g/kg p.o.
[5] = male, Sprague Dawley, rat, in vivo
[6] = male, Sprague Dawley, rat, in vivo, po, 1 g/kg
[7] = male, Sprague Dawley, rat, in vivo, po, 3 g/kg

| Compound | increase of AUC in the 3 g/kg group compared to the 1 g/kg group [1, 5] | ratio of AUC adjusted to the administered dose, high-dose group vs low-dose group [1, 5] | AUC [1, 6] | CL (clearance) [1, 6] | Cmax [1, 6] | MRT [1, 6] | Tmax [1, 6] | half-life [1, 6] | AUC [1, 7] | AUC/dose [1, 7] | CL (clearance) [1, 7] | Cmax [1, 7] | MRT [1, 7] | Tmax [1, 7] | half-life [1, 7] | other results |
| --- | --- | --- | --- | --- | --- | --- | --- | --- | --- | --- | --- | --- | --- | --- | --- | --- |
| COC(=O)C1=CO[C@@H](O[C@@H]2O[C@H](CO)[C@@H](O)[C@H](O)[C@H]2O)[C@@H]2C(CO)=CC[C@H]12 [Geniposide, geniposide] |  |  |  |  |  |  |  |  |  |  |  |  |  |  |  | AUC ([1]; male, Sprague Dawley, in vivo, po, rat plasma, YCHT 1 g/kg p.o., mean ± S.D., n = 6, read-out: AUC (converted)): 313 ng·h/mL; Cmax ([1]; male, Sprague Dawley, in vivo, po, rat plasma, YCHT 1 g/kg p.o., mean ± S.D., n = 6, read-out: Cmax): 145 ± 251 ng/mL; MRT ([1]; male, Sprague Dawley, in vivo, po, rat plasma, YCHT 1 g/kg p.o., mean ± S.D., n = 6, read-out: MRT (mean retention time) (converted)): 1.92 h; Tmax ([1]; male, Sprague Dawley, in vivo, po, rat plasma, YCHT 1 g/kg p.o., mean ± S.D., n = 6, read-out: Tmax (converted)): 1.35 h; half-life ([1]; male, Sprague Dawley, in vivo, po, rat plasma, YCHT 1 g/kg p.o., mean ± S.D., n = 6, read-out: t1/2 (elimination half-life)): 1.33 ± 0.3 h; AUC ([1]; male, Sprague Dawley, in vivo, po, rat plasma, YCHT 3 g/kg p.o., mean ± S.D., n = 6, read-out: AUC (converted)): 1580 ng·h/mL; Cmax ([1]; male, Sprague Dawley, in vivo, po, rat plasma, YCHT 3 g/kg p.o., mean ± S.D., n = 6, read-out: Cmax): 604 ± 256 ng/mL; MRT ([1]; male, Sprague Dawley, in vivo, po, rat plasma, YCHT 3 g/kg p.o., mean ± S.D., n = 6, read-out: MRT (mean retention time) (converted)): 2.53 h; Tmax ([1]; male, Sprague Dawley, in vivo, po, rat plasma, YCHT 3 g/kg p.o., mean ± S.D., n = 6, read-out: Tmax (converted)): 1.35 h; half-life ([1]; male, Sprague Dawley, in vivo, po, rat plasma, YCHT 3 g/kg p.o., mean ± S.D., n = 6, read-out: t1/2 (elimination half-life)): 1.43 ± 0.483 h; concentration at 180 min ([1]; male, Sprague Dawley, rat, in vivo, typical plasma sample collected 180 min after oral YCHT 3 g/kg): 287 ng/mL; CL (clearance) ([1]; rat plasma, YCHT 1 g/kg p.o., mean ± S.D., n = 6): 1403 ± 1018 mL/min/kg; AUC/dose [1, 3]: 31.63 ± 10.76; CL (clearance) [1, 3]: 259.8 ± 109.2 mL/min/kg; increase of AUC in the 3 g/kg group compared to the 1 g/kg group [1, 4]: 5.1 fold; ratio of AUC adjusted to the administered dose, high-dose group vs low-dose group [1, 4]: 1.7 times |
| O=C(O)c1cc(O)c2c(c1)C(=O)c1cccc(O)c1C2=O [Rhein, rhein] | 6.8 fold | 2.3 times | 485 ng·h/mL | 3.710 ± 1.366 mL/min/kg | 311 ± 166 ng/mL | 1.77 h | 0.2 h | 2.02 ± 0.767 h | 3310 ng·h/mL | 66.18 ± 17.09 | 1.483 ± 0.357 mL/min/kg | 1660 ± 805 ng/mL | 1.93 h | 0.383 h | 1.73 ± 1.15 h | pharmacokinetics, dose linearity [2]: Linear pharmacokinetics |
| COc1cc2ccc(=O)oc2cc1OC [Scoparone, 6,7-dimethoxycoumarin] | 7.5 fold | 2.5 times | 15.9 ng·h/mL | 394.7 ± 209.4 mL/min/kg | 18 ± 12 ng/mL | 0.317 h | 0.233 h | 0.433 ± 0.0833 h | 119 ng·h/mL | 2.374 ± 1.126 | 131.5 ± 123.6 mL/min/kg | 132 ± 137 ng/mL | 0.85 h | 0.35 h | 1.15 ± 0.917 h |  |
